Experimental findings from DBAASP are described below.

Test systems include Escherichia coli C600; Bacillus subtilis DELTA; Candida parapsilosis.
What all share (test): ≥ marks a high value that may be exact or a test limit, other limits are often not marked, values filed in µg/mL are converted to µM
The subject of assay [1] is Pseudomonas aeruginosa PAO1.
Assay [2] deals with Staphylococcus aureus 209P.
Assay [3] concerns Bacillus subtilis CGMCC 1.3376.
Assay [4] concerns Escherichia coli CGMCC 1.8732.
Assay [5] has as its system Staphylococcus epidermidis CGMCC 1.4260.
In assay [6] the test system is Pseudomonas aeruginosa CGMCC 1.2421.
Assay [7] deals with Klebsiella pneumoniae CGMCC 1.1736.
The test system of assay [8] is Staphylococcus aureus CGMCC 1.8721.
The subject of assay [9] is Escherichia coli DH5alpha.
Assay [10] concerns Zymomonas mobilis ATCC 10988.
The test system of assay [11] is Streptococcus mutans UA159.
The subject of assay [12] is Streptococcus sobrinus ATCC 6715.
Assay [13] concerns Streptococcus sanguinis ATCC 10556.

≈ marks a conversion by molar mass, not a printed value.

In the case of `CC[C@H](C)[C@@H]1NC(=O)CNC(=O)[C@H](CCCN=C(N)N)NC(=O)[C@H](Cc2ccc(O)cc2)NC(=O)[C@@H]2CSSC[C@H](NC1=O)C(=O)N[C@@H](Cc1ccc(O)cc1)C(=O)N[C@@H](CCCN=C(N)N)C(=O)N[C@@H](CCCN=C(N)N)C(=O)N[C@H](C(=O)N[C@@H](CCCN=C(N)N)C(=O)O)CSSC[C@H](NC(=O)[C@H](Cc1c[nH]c3ccccc13)NC(=O)[C@@H](N)CCCCN)C(=O)N[C@@H](Cc1ccccc1)C(=O)N[C@@H](CCCN=C(N)N)C(=O)N[C@@H](CCCN=C(N)N)C(=O)N2` [KWCFRRCYRGICYRRCR], the results for the MIC (in [1]; in [2]; with Escherichia coli C600) were over 50 µM, at least 50 µM and 1.56 µM (≈ 3.62 µg/mL), respectively.

As for `CC[C@H](C)[C@H](NC(=O)[C@H](CO)NC(=O)CNC(=O)[C@@H](NC(=O)[C@@H](N)CCCN=C(N)N)[C@@H](C)CC)C(=O)N[C@@H](CC(C)C)C(=O)NCC(=O)N[C@@H](C)C(=O)N[C@@H](CC(C)C)C(=O)N[C@@H](C)C(=O)N[C@@H](CCCCN)C(=O)NCC(=O)N[C@@H](CC(C)C)C(=O)N1CCC[C@H]1C(=O)N[C@H](C(=O)N[C@@H](CC(C)C)C(=O)N[C@@H](CCCCN)C(=O)N[C@@H](CO)C(=O)N[C@@H](Cc1c[nH]c2ccccc12)C(=O)N[C@H](C(=O)N[C@@H](CCCCN)C(=O)N[C@@H](CC(N)=O)C(=O)N[C@@H](CCCN=C(N)N)C(N)=O)[C@@H](C)CC)[C@@H](C)O` [RIGSILGALAKGLPTLKSWIKNR], the minimum inhibitory concentration (MIC) in assay [3] was 6.25 µM (≈ 15.6 µg/mL); in [4], 25 µM (≈ 62.3 µg/mL); in [5], 6.25 µM (≈ 15.6 µg/mL); in [6], 12.5 µM (≈ 31.2 µg/mL); in assay [7], 25 µM (≈ 62.3 µg/mL); in assay [8] it was at least 100 µM.

As for `CC[C@H](C)[C@H](NC(=O)[C@H](Cc1ccccc1)NC(=O)[C@H](CCCCN)NC(=O)[C@H](CC(C)C)NC(=O)[C@H](CC(C)C)NC(=O)[C@@H](N)CCCN=C(N)N)C(=O)N[C@@H](CCCCN)C(=O)N[C@@H](CCCCN)C(=O)N[C@@H](CC(C)C)C(=O)N[C@@H](CC(C)C)C(N)=O` [RLLKFIKKLL], the minimum inhibitory concentration (MIC) is at least 315 µM in assay [9], 31.5 µM (≈ 40 µg/mL) in the assay with Bacillus subtilis DELTA, 23.6 µM (≈ 30 µg/mL) in the assay on Candida parapsilosis and 7.86 µM (≈ 9.99 µg/mL) in [10].

Take `CC(C)[C@H](NC(=O)[C@H](CCCN=C(N)N)NC(=O)[C@H](CCCCN)NC(=O)CNC(=O)[C@@H](NC(=O)[C@H](CCCN=C(N)N)NC(=O)[C@H](Cc1c[nH]c2ccccc12)NC(=O)[C@H](Cc1c[nH]c2ccccc12)NC(=O)[C@H](CCCCN)NC(=O)[C@H](CCCCN)NC(=O)[C@H](Cc1ccccc1)NC(=O)[C@H](Cc1ccccc1)NC(=O)[C@H](CCCN=C(N)N)NC(=O)CNC(=O)[C@H](Cc1c[nH]c2ccccc12)NC(=O)CN)C(C)C)C(=O)NCC(=O)N[C@@H](CCCCN)C(=O)O` [GWGRFFKKWWRVGKRVGK]: the MIC in assay [11], in assay [12] and in assay [13] was 7.02 µM (≈ 16 µg/mL) throughout.

As to `CC(C)[C@H](NC(=O)[C@H](CCCCN)NC(=O)[C@H](CCCCN)NC(=O)[C@H](Cc1c[nH]c2ccccc12)NC(=O)[C@H](CCCCN)NC(=O)[C@H](CCCCN)NC(=O)[C@H](Cc1ccccc1)NC(=O)[C@H](Cc1ccccc1)NC(=O)[C@H](CCCCN)NC(=O)[C@H](CCCCN)NC(=O)[C@H](Cc1c[nH]c2ccccc12)NC(=O)CN)C(=O)N[C@@H](Cc1c[nH]c2ccccc12)C(=O)N[C@@H](CCCCN)C(=O)O` [GWKKFFKKWKKVWK], the figures for the minimum inhibitory concentration (MIC) in [11], in assay [12] and in assay [13] were 8.31 µM (≈ 16 µg/mL), 8.31 µM (≈ 16 µg/mL) and 16.6 µM (≈ 32 µg/mL), respectively.

Consider `CC[C@H](C)[C@H](NC(=O)[C@H](C)N)C(=O)NCC(=O)N[C@@H](CO)C(=O)N[C@H](C(=O)N[C@@H](CC(C)C)C(=O)NCC(=O)N[C@@H](CCCN=C(N)N)C(=O)N[C@@H](CC(C)C)C(=O)N[C@@H](C)C(=O)N[C@@H](CCCCN)C(=O)NCC(=O)N[C@@H](CC(C)C)C(=O)N1CCC[C@H]1C(=O)N[C@H](C(=O)N[C@@H](CC(C)C)C(=O)N[C@H](C(=O)N[C@@H](CO)C(=O)N[C@@H](Cc1c[nH]c2ccccc12)C(=O)N[C@H](C(=O)N[C@@H](CCCCN)C(=O)N[C@@H](CC(N)=O)C(=O)N[C@@H](CCCN=C(N)N)C(N)=O)[C@@H](C)CC)[C@@H](C)CC)[C@@H](C)O)[C@@H](C)CC` [AIGSILGRLAKGLPTLISWIKNR], for which the MIC worked out at 3.13 µM (≈ 7.75 µg/mL) in [3]; 12.5 µM (≈ 31 µg/mL) in assay [4]; 3.13 µM (≈ 7.75 µg/mL) in assay [5]; 12.5 µM (≈ 31 µg/mL) in [6]; 12.5 µM (≈ 31 µg/mL) in [7]; 3.13 µM (≈ 7.75 µg/mL) in assay [8].

On to `CC[C@H](C)[C@H](NC(=O)[C@H](CCCCN)NC(=O)[C@H](CCCCN)NC(=O)[C@H](CC(C)C)NC(=O)[C@H](CC(C)C)NC(=O)CN)C(=O)N[C@@H](CCCCN)C(=O)N[C@@H](CCCN=C(N)N)C(=O)N[C@@H](CC(C)C)C(=O)N[C@@H](CC(C)C)C(N)=O` [GLLKKIKRLL], for which the minimal inhibitory concentration (MIC) in [1] was 5.92 µM (≈ 6.99 µg/mL); in assay [9], at least 169 µM; against Bacillus subtilis DELTA, at least 169 µM; in the assay on Candida parapsilosis, 25.4 µM (≈ 30 µg/mL); in [10], at least 33.9 µM.
